According to ChEMBL document CHEMBL4602678, “Identification of Holrhizins E-Q Reveals the Diversity of Nonribosomal Lipopeptides in Paraburkholderia rhizoxinica” (J Nat Prod, 2020):
Where a SMILES comes first, the peptide text is derived from it. The star is where a group is joined. Octanoyl = CCCCCCCC(=O)*; Hexanoyl = CCCCCC(=O)*

Legend:
Aspergillus fumigatus = experiment: Antimicrobial activity against Aspergillus fumigatus incubated for 24 hrs by Kirby-Bauer disk diffusion method; assay type: functional
SGC-7901 = experiment: Cytotoxicity against human SGC7901 cells incubated for 2 days by MTT assay; assay type: functional, cell-based; settings: SGC-7901, 48 h
Staphylococcus aureus = experiment: Antimicrobial activity against Staphylococcus aureus ATCC 29213 incubated for 24 hrs by Kirby-Bauer disk diffusion method; assay type: functional; settings: ATCC 29213, 24 h
Escherichia coli = experiment: Antimicrobial activity against Escherichia coli ATCC 35218 incubated for 24 hrs by Kirby-Bauer disk diffusion method; assay type: functional; settings: ATCC 35218, 24 h
HepG2 = experiment: Cytotoxicity against human HepG2 cells incubated for 2 days by MTT assay; assay type: functional, cell-based; settings: HepG2, 48 h
K562 = experiment: Cytotoxicity against human K562 cells incubated for 2 days by MTT assay; assay type: functional, cell-based; settings: K562, 48 h
Candida albicans = experiment: Antimicrobial activity against Candida albicans incubated for 24 hrs by Kirby-Bauer disk diffusion method; assay type: functional
Pseudomonas aeruginosa = experiment: Antimicrobial activity against Pseudomonas aeruginosa […] ATCC 27853 incubated for 24 hrs by Kirby-Bauer disk diffusion method; assay type: functional
MCF7 = experiment: Cytotoxicity against human MCF7 cells incubated for 2 days by MTT assay; assay type: functional, cell-based; settings: MCF7, 48 h
[1] = Cytotoxicity against human 2B cells incubated for 2 days by MTT assay; assay type: cell-based; settings: 48 h
HCT-116 = experiment: Cytotoxicity against human HCT116 cells incubated for 2 days by MTT assay; assay type: functional, cell-based; settings: HCT-116, 48 h
Bacillus subtilis = experiment: Antimicrobial activity against Bacillus subtilis ATCC 6633 incubated for 24 hrs by Kirby-Bauer disk diffusion method; assay type: functional; settings: ATCC 6633, 24 h
MDA-MB-231 = experiment: Cytotoxicity against human MDA-MB-231 cells incubated for 2 days by MTT assay; assay type: functional, cell-based; settings: MDA-MB-231, 48 h
[2] = Cytotoxicity against human Kasumi cells incubated for 2 days by MTT assay; assay type: functional, cell-based; settings: 48 h
A549 = experiment: Cytotoxicity against human A549 cells incubated for 2 days by MTT assay; assay type: functional, cell-based; settings: A549, 48 h
Rhizoctonia solani = experiment: Antimicrobial activity against Rhizoctonia solani incubated for 24 hrs by Kirby-Bauer disk diffusion method; assay type: functional

Row | MIC (Aspergillus fumigatus) [µM] | MIC (Staphylococcus aureus) [µM] | MIC (Escherichia coli) [µM] | MIC (Candida albicans) [µM] | MIC (Pseudomonas aeruginosa) [µM] | MIC (Bacillus subtilis) [µM] | MIC (Rhizoctonia solani) [µM] | SMILES | IC50 (SGC-7901) [µM] | IC50 (HepG2) [µM] | IC50 (K562) [µM] | IC50 (MCF7) [µM] | IC50 [1] [µM] | IC50 (HCT-116) [µM] | IC50 (MDA-MB-231) [µM] | IC50 [2] [µM] | IC50 (A549) [µM]
1 | > 100 | > 100 | > 100 | > 100 | > 100 | > 100 | > 100 | CCCCCCCC(=O)N[C@H](C(=O)N[C@@H](Cc1ccccc1)C(=O)N[C@@H](CCC(=O)O)C(=O)N[C@H](C(=O)N[C@@H](C)C(=O)N[C@H](C(=O)O)[C@@H](C)CC)[C@@H](C)CC)C(C)C (Octanoyl-VFEIAI-OH) | > 40 | > 40 | > 40 | > 40 | > 40 | > 40 | > 40 | > 40 | > 40
2 | > 100 | > 100 | > 100 | > 100 | > 100 | > 100 | > 100 | CCCCCCCC(=O)N[C@H](C(=O)N[C@@H](Cc1ccccc1)C(=O)N[C@@H](CCC(=O)O)C(=O)N[C@H](C(=O)N[C@@H](C)C(=O)N[C@@H](CC(C)C)C(=O)O)[C@@H](C)CC)C(C)C (Octanoyl-VFEIAL-OH) | > 40 | > 40 | > 40 | > 40 | > 40 | > 40 | > 40 | > 40 | > 40
3 | > 100 | > 100 | > 100 | > 100 | > 100 | > 100 | > 100 | CCCCCCCC(=O)N[C@H](C(=O)N[C@@H](Cc1ccccc1)C(=O)N[C@@H](CCC(=O)O)C(=O)N[C@@H](CC(C)C)C(=O)N[C@@H](C)C(=O)N[C@@H](CC(C)C)C(=O)O)C(C)C (Octanoyl-VFELAL-OH) | > 40 | > 40 | > 40 | > 40 | > 40 | > 40 | > 40 | > 40 | > 40
4 | > 100 | > 100 | > 100 | > 100 | > 100 | > 100 | > 100 | CCCCCC(=O)N[C@H](C(=O)N[C@@H](Cc1ccccc1)C(=O)N[C@@H](CCC(=O)O)C(=O)N[C@@H](CC(C)C)C(=O)N[C@@H](C)C(=O)N[C@H](C(=O)O)[C@@H](C)CC)C(C)C (Hexanoyl-VFELAI-OH) | > 40 | > 40 | > 40 | > 40 | > 40 | > 40 | > 40 | > 40 | > 40
5 | > 100 | > 100 | > 100 | > 100 | > 100 | > 100 | > 100 | CCCCCCCC(=O)N[C@H](C(=O)N[C@@H](Cc1ccccc1)C(=O)N[C@@H](CCC(=O)O)C(=O)N[C@@H](CC(C)C)C(=O)N[C@@H](C)C(=O)N[C@H](C(=O)O)C(C)C)C(C)C (Octanoyl-VFELAV-OH) | > 40 | > 40 | > 40 | > 40 | > 40 | > 40 | > 40 | > 40 | > 40
6 | > 100 | > 100 | > 100 | > 100 | > 100 | > 100 | > 100 | CCCCCCCC(=O)N[C@H](C(=O)N[C@@H](Cc1ccccc1)C(=O)N[C@@H](CCC(=O)O)C(=O)N[C@@H](CC(C)C)C(=O)N[C@@H](C)C(=O)N[C@H](C(=O)O)[C@@H](C)CC)C(C)C (Octanoyl-VFELAI-OH) | > 40 | > 40 | > 40 | > 40 | > 40 | > 40 | > 40 | > 40 | > 40
7 | > 100 | > 100 | > 100 | > 100 | > 100 | > 100 | > 100 | CCCCCCCC(=O)N[C@H](C(=O)N[C@@H](Cc1ccccc1)C(=O)N[C@@H](CCC(=O)O)C(=O)N[C@H](C(=O)N[C@@H](C)C(=O)N[C@H](C(=O)O)C(C)C)[C@@H](C)CC)C(C)C (Octanoyl-VFEIAV-OH) | > 40 | > 40 | > 40 | > 40 | > 40 | > 40 | > 40 | > 40 | > 40
8 | > 100 | > 100 | > 100 | > 100 | > 100 | > 100 | > 100 | CCCCCC(=O)N[C@H](C(=O)N[C@@H](Cc1ccccc1)C(=O)N[C@@H](CCC(=O)O)C(=O)N[C@H](C(=O)N[C@@H](C)C(=O)N[C@@H](CC(C)C)C(=O)O)[C@@H](C)CC)C(C)C (Hexanoyl-VFEIAL-OH) | > 40 | > 40 | > 40 | > 40 | > 40 | > 40 | > 40 | > 40 | > 40

More lines, now with the values behind:

Row | SMILES | MIC (Aspergillus fumigatus) [µM] | MIC (Staphylococcus aureus) [µM] | MIC (Escherichia coli) [µM] | MIC (Candida albicans) [µM] | MIC (Pseudomonas aeruginosa) [µM] | MIC (Bacillus subtilis) [µM] | MIC (Rhizoctonia solani) [µM] | IC50 (SGC-7901) [µM] | IC50 (HepG2) [µM] | IC50 (K562) [µM] | IC50 (MCF7) [µM] | IC50 [1] [µM] | IC50 (HCT-116) [µM] | IC50 (MDA-MB-231) [µM] | IC50 [2] [µM] | IC50 (A549) [µM]
9 | CCCCCCCC(=O)N[C@H](C(=O)N[C@@H](Cc1ccccc1)C(=O)N[C@@H](CCC(=O)O)C(=O)N[C@H](C(=O)NCC(=O)N[C@H](C(=O)O)[C@@H](C)CC)[C@@H](C)CC)C(C)C (Octanoyl-VFEIGI-OH) | > 100 | > 100 | > 100 | > 100 | > 100 | > 100 | > 100 | > 40 | > 40 | > 40 | > 40 | > 40 | > 40 | > 40 | > 40 | > 40
10 | CCCCCCCC(=O)N[C@H](C(=O)N[C@@H](Cc1ccccc1)C(=O)N[C@@H](CCC(=O)O)C(=O)N[C@@H](CC(C)C)C(=O)O)C(C)C (Octanoyl-VFEL-OH) | > 100 | > 100 | > 100 | > 100 | > 100 | > 100 | > 100 | > 40 | > 40 | > 40 | > 40 | > 40 | > 40 | > 40 | > 40 | > 40
11 | CCCCCC(=O)N[C@H](C(=O)N[C@@H](Cc1ccccc1)C(=O)N[C@@H](CCC(=O)O)C(=O)N[C@@H](CC(C)C)C(=O)N[C@@H](C)C(=O)N[C@@H](CC(C)C)C(=O)O)C(C)C (Hexanoyl-VFELAL-OH) | > 100 | > 100 | > 100 | > 100 | > 100 | > 100 | > 100 | > 40 | > 40 | > 40 | > 40 | > 40 | > 40 | > 40 | > 40 | > 40
12 | CCCCCCCC(=O)N[C@H](C(=O)N[C@@H](Cc1ccccc1)C(=O)N[C@@H](CCC(=O)O)C(=O)N[C@H](C(=O)O)[C@@H](C)CC)C(C)C (Octanoyl-VFEI-OH) | > 100 | > 100 | > 100 | > 100 | > 100 | > 100 | > 100 | > 40 | > 40 | > 40 | > 40 | > 40 | > 40 | > 40 | > 40 | > 40
13 | CCCCCC(=O)N[C@H](C(=O)N[C@@H](Cc1ccccc1)C(=O)O)C(C)C (Hexanoyl-Val-Phe-OH) | > 100 | > 100 | > 100 | > 100 | > 100 | > 100 | > 100 | > 40 | > 40 | > 40 | > 40 | > 40 | > 40 | > 40 | > 40 | > 40
14 | CCCCCCCC(=O)N[C@H](C(=O)N[C@@H](Cc1ccccc1)C(=O)O)C(C)C (Octanoyl-Val-Phe-OH) | > 100 | > 100 | > 100 | > 100 | > 100 | > 100 | > 100 | > 40 | > 40 | > 40 | > 40 | > 40 | > 40 | > 40 | > 40 | > 40
15 | CCCCCC(=O)N[C@H](C(=O)N[C@@H](Cc1ccccc1)C(=O)N[C@@H](CCC(=O)O)C(=O)N[C@H](C(=O)N[C@@H](C)C(=O)N[C@H](C(=O)O)[C@@H](C)CC)[C@@H](C)CC)C(C)C (Hexanoyl-VFEIAI-OH) | > 100 | > 100 | > 100 | > 100 | > 100 | > 100 | > 100 | > 40 | > 40 | > 40 | > 40 | > 40 | > 40 | > 40 | > 40 | > 40
